# In US12583889B2, “Cell penetrating peptides” (Oxford University Innovation Limited, priority 2017, dated 2026):
# Marks after values point to notes of the source that are not given here.
# What was measured:
# [1] = tested on: SMN2 exon 7 inclusion in GM03813 SMA patient fibroblasts; experiment: Cell screening of peptide-PMO conjugates for SMN2 exon 7 inclusion in human SMA patient fibroblast cell culture; type: cell-based; conditions: for cell activity (SMN2 exon 7 inclusion): second screen, FIG. 5, qPCR; for cell activity (SMN2 exon 7 inclusion) / cell activity (SMN2 exon 7 inclusion) relative to peptide 14: 667 nM and 2 μM; for cell activity (SMN2 exon 7 inclusion) relative to peptide 14: first screen, FIG. 4, qPCR; for cell activity (SMN2 exon 7 inclusion) relative to S* peptide: FIG. 6, 4 μM, 2 μM, 1 μM, 500 nM, 250 nM
# Method: In order to generate further peptide candidates containing a glycosylated Serine residue for in vivo evaluation, the inventors synthesized a range of similarly glycosylated peptides, conjugated them to the same PMO therapeutic and screened the resultant P-PMO conjugates in human SMA patient fibroblast cell culture, which assesses their ability to enter cell nuclei to give exon inclusion.
# GM03813 (Coriell Institute) derived from SMA type I patient fibroblast were seeded out at 2500 cells/well in 100 μl Dulbecco's modified Eagle's medium (DMEM) with GlutaMAX and 5% fetal bovine serum (FBS) (Life Technologies, Inc.) in 96 well plates, and incubated for 16 h in a cell culture incubator (37° C., 5% CO2, 100% rel. humidity). On the next day cells were then treated with 10 μl P-PMO at different concentrations (in water) in duplicate for 24 hours. After removal of the supernatant, cells were washed once with PBS-buffer and were lysed in lysis buffer (10 mM Tris, 3 mM MgCl2, 1 mM CaCl2), 1% Triton X-100, 200 u/ml DNase I and 200 u/ml Proteinase K) for 10 min. Afterwards the lysate were transferred into a 96-well plate (Eppendorf twintec) and incubated at 75° C. for 15 min and subsequently cooled to 4° C. and used immediately. The mRNA levels of SMN2 FL, SMN2 Δ7 and GAPDH were quantified using Taqman-based qRT-PCR (Superscript® III Platinium® One Step qRT-PCR, Thermo Fisher) and SMN2 specific Primers and probes (purchased from IDT Integrated DNA Technologies). (19) SMN2 FL and Δ7 mRNAs were normalized to GAPDH. […]
# human SMN2-gene = experiment: Full-length SMN2 transcript qPCR in tissues of adult SMA mice after intravenous peptide-PMO conjugate; type: in vivo; conditions: for full-length SMN2 transcripts, mean expression level, Brainstem / full-length SMN2 transcripts, mean expression level, Cerebellum / full-length SMN2 transcripts, mean expression level, Cortex / full-length SMN2 transcripts, mean expression level, Liver / full-length SMN2 transcripts, mean expression level, Gastroc / full-length SMN2 transcripts, mean expression level, Quad / full-length SMN2 transcripts, mean expression level, Cervical / full-length SMN2 transcripts, mean expression level, Lumbar / full-length SMN2 transcripts, mean expression level, Thoracic / full-length SMN2 transcripts, mean expression level, TA: adult SMA mice, 2x15 mg/kg IV approx. 48 hours apart, tissue 7 days post final administration, normalised to saline treated controls; for full-length SMN2 transcripts, mean expression level, Brainstem / full-length SMN2 transcripts, mean expression level, Cerebellum / full-length SMN2 transcripts, mean expression level, Cortex: Central Nervous System; for full-length SMN2 transcripts, mean expression level, Liver: Off Target; for full-length SMN2 transcripts, mean expression level, Gastroc: Skeletal Muscle (gastrocnemius); for full-length SMN2 transcripts, mean expression level, Quad: Skeletal Muscle (quadriceps); for full-length SMN2 transcripts, mean expression level, Cervical / full-length SMN2 transcripts, mean expression level, Lumbar / full-length SMN2 transcripts, mean expression level, Thoracic: spinal cord; for full-length SMN2 transcripts, mean expression level, TA: Skeletal Muscle (tibialis anterior)
# Text: Smn1tm1Hung/wt; […]; […] Tissues were harvested one week post administration. […] Statistical significance determined by Student'[…]≤0.00005. […] ID NO.151), Exons 7-8 Rev: [NT] ID NO.152). […] [NT] ID NO.154). […] PolJ Forward: [NT] ID NO.155); PolJ Reverse: [NT]
substance,measurement,setting,value
Ac-RS*RRBRRBRBRXR-G [Peptide 59],cell activity (SMN2 exon 7 inclusion),[1],no significant alteration in activity levels
Ac-RXRXRS*RXRXR-G [Peptide 71],cell activity (SMN2 exon 7 inclusion),[1],remarkably good activity
Ac-RBRRBRRRS*FLRBRBRBR-G [Peptide 36],cell activity (SMN2 exon 7 inclusion) relative to peptide 14,[1],without a large loss in cell activity
Ac-RXRRBRRFLRBRXR-B [Peptide 6],"full-length SMN2 transcripts, mean expression level, Brainstem",human SMN2-gene,1.38**
same,"full-length SMN2 transcripts, mean expression level, Cerebellum",human SMN2-gene,1.05
same,"full-length SMN2 transcripts, mean expression level, Cortex",human SMN2-gene,1.13
same,"full-length SMN2 transcripts, mean expression level, Liver",human SMN2-gene,2.78
same,"full-length SMN2 transcripts, mean expression level, Gastroc",human SMN2-gene,3.22****
same,"full-length SMN2 transcripts, mean expression level, Quad",human SMN2-gene,2.89***
same,"full-length SMN2 transcripts, mean expression level, Cervical",human SMN2-gene,0.88**
same,"full-length SMN2 transcripts, mean expression level, Lumbar",human SMN2-gene,1.23*
same,"full-length SMN2 transcripts, mean expression level, Thoracic",human SMN2-gene,1.37*
Ac-RBRRBRRBRS*FLRBRBR-G [Peptide 29],cell activity (SMN2 exon 7 inclusion) relative to peptide 14,[1],less active than the first peptide 14
Ac-RXRRBRFQILYRBRXR-B [Peptide 7],"full-length SMN2 transcripts, mean expression level, Brainstem",human SMN2-gene,1.11
same,"full-length SMN2 transcripts, mean expression level, Cerebellum",human SMN2-gene,0.97
same,"full-length SMN2 transcripts, mean expression level, Cortex",human SMN2-gene,1.01
same,"full-length SMN2 transcripts, mean expression level, Liver",human SMN2-gene,3.19
same,"full-length SMN2 transcripts, mean expression level, Gastroc",human SMN2-gene,2.92****
same,"full-length SMN2 transcripts, mean expression level, Quad",human SMN2-gene,2.80****
same,"full-length SMN2 transcripts, mean expression level, TA",human SMN2-gene,3.34****
same,"full-length SMN2 transcripts, mean expression level, Cervical",human SMN2-gene,1.26
same,"full-length SMN2 transcripts, mean expression level, Lumbar",human SMN2-gene,0.97
same,"full-length SMN2 transcripts, mean expression level, Thoracic",human SMN2-gene,1.33
Ac-RXRRBRRXRS*FRXRBRXR-G [Peptide 43],cell activity (SMN2 exon 7 inclusion) relative to peptide 14,[1],only a slightly reduced activity
Ac-RXRRBRRFQILYRBRXR-B [Peptide 3],"full-length SMN2 transcripts, mean expression level, Brainstem",human SMN2-gene,0.86
same,"full-length SMN2 transcripts, mean expression level, Cerebellum",human SMN2-gene,1.025
same,"full-length SMN2 transcripts, mean expression level, Cortex",human SMN2-gene,0.93
same,"full-length SMN2 transcripts, mean expression level, Liver",human SMN2-gene,4.57
same,"full-length SMN2 transcripts, mean expression level, Gastroc",human SMN2-gene,3.4
same,"full-length SMN2 transcripts, mean expression level, Quad",human SMN2-gene,3.35****
same,"full-length SMN2 transcripts, mean expression level, TA",human SMN2-gene,3.95***
same,"full-length SMN2 transcripts, mean expression level, Cervical",human SMN2-gene,0.92
same,"full-length SMN2 transcripts, mean expression level, Lumbar",human SMN2-gene,1.1
same,"full-length SMN2 transcripts, mean expression level, Thoracic",human SMN2-gene,1
Ac-RBRRBRRBRS*FLRBRBRR-G [Peptide 33],cell activity (SMN2 exon 7 inclusion) relative to peptide 14,[1],without a large loss in cell activity
Ac-RXRRS*RRBRBRXR-G [Peptide 58],cell activity (SMN2 exon 7 inclusion),[1],no significant alteration in activity levels
Ac-RXRRBRRQFLRBRXR-B [Peptide 5],"full-length SMN2 transcripts, mean expression level, Brainstem",human SMN2-gene,1.22
same,"full-length SMN2 transcripts, mean expression level, Cerebellum",human SMN2-gene,1
same,"full-length SMN2 transcripts, mean expression level, Cortex",human SMN2-gene,1.11
same,"full-length SMN2 transcripts, mean expression level, Liver",human SMN2-gene,2.73
same,"full-length SMN2 transcripts, mean expression level, Gastroc",human SMN2-gene,2.49****
same,"full-length SMN2 transcripts, mean expression level, Quad",human SMN2-gene,2.46****
same,"full-length SMN2 transcripts, mean expression level, TA",human SMN2-gene,2.80****
same,"full-length SMN2 transcripts, mean expression level, Cervical",human SMN2-gene,1.24*
same,"full-length SMN2 transcripts, mean expression level, Lumbar",human SMN2-gene,1.25*
same,"full-length SMN2 transcripts, mean expression level, Thoracic",human SMN2-gene,1.23
Ac-RXRRBRRXRYQFLIRXRBRXR-B [Peptide 1],"full-length SMN2 transcripts, mean expression level, Brainstem",human SMN2-gene,1.48***
same,"full-length SMN2 transcripts, mean expression level, Cerebellum",human SMN2-gene,1.25*
same,"full-length SMN2 transcripts, mean expression level, Cortex",human SMN2-gene,1.29**
same,"full-length SMN2 transcripts, mean expression level, Liver",human SMN2-gene,2.81
same,"full-length SMN2 transcripts, mean expression level, Gastroc",human SMN2-gene,3.03***
same,"full-length SMN2 transcripts, mean expression level, Quad",human SMN2-gene,3.37***
same,"full-length SMN2 transcripts, mean expression level, TA",human SMN2-gene,3.30***
same,"full-length SMN2 transcripts, mean expression level, Cervical",human SMN2-gene,1.50***
same,"full-length SMN2 transcripts, mean expression level, Lumbar",human SMN2-gene,1.28***
same,"full-length SMN2 transcripts, mean expression level, Thoracic",human SMN2-gene,1.45***
Ac-RBRBRS*RBRBR-G [Peptide 70],cell activity (SMN2 exon 7 inclusion),[1],remarkably good activity
Ac-RXRRBRRS*S*S* RBRXR-G [Peptide 68],cell activity (SMN2 exon 7 inclusion),[1],retained good activity in cells
Ac-RXRRBRRXRRXRBRXRS*FL-G [Peptide 48],cell activity (SMN2 exon 7 inclusion) relative to peptide 14,[1],almost as active as the first peptide
Ac-RBRRBRRBR S*FL RBRBRBR-G [Peptide 18],cell activity (SMN2 exon 7 inclusion) relative to peptide 14,[1],no significant effect on cell activity
Ac-RRBRRBRS*FLRBRBRBR-G [Peptide 24],cell activity (SMN2 exon 7 inclusion) relative to peptide 14,[1],less active than the first peptide 14
Ac-RXRRBRRZS*RBRXR-B [Peptide 73],cell activity (SMN2 exon 7 inclusion) at low doses,"[1]; third screen, FIG. 6",good activity at low doses
same,cell activity (SMN2 exon 7 inclusion) relative to S* peptide,[1]; third screen,greatly improved alteration in activity levels
Ac-RXRRBRRS*S*RBRXR-G [Peptide 67],cell activity (SMN2 exon 7 inclusion),[1],retained good activity in cells
Ac-RBRRBRRBRS*FLRBRRR-G [Peptide 34],cell activity (SMN2 exon 7 inclusion) relative to peptide 14,[1],without a large loss in cell activity
Ac-RRBRS*FLRBRBRBR-G [Peptide 26],cell activity (SMN2 exon 7 inclusion) relative to peptide 14,[1],slightly less active only
Ac-RBRRRRRS*FLRBRBRBR-G [Peptide 37],cell activity (SMN2 exon 7 inclusion) relative to peptide 14,[1],without a large loss in cell activity
Ac-RXRRBRRFS^1*RBRXR-B [Peptide 74],cell activity (SMN2 exon 7 inclusion) relative to S* peptide,[1]; third screen,Improved activity
Ac-RXRRBRRXRQFLRXRBRXR-B [Peptide 2],"full-length SMN2 transcripts, mean expression level, Brainstem",human SMN2-gene,1.36***
same,"full-length SMN2 transcripts, mean expression level, Cerebellum",human SMN2-gene,1.15*
same,"full-length SMN2 transcripts, mean expression level, Cortex",human SMN2-gene,1.16*
same,"full-length SMN2 transcripts, mean expression level, Liver",human SMN2-gene,2.91
same,"full-length SMN2 transcripts, mean expression level, Gastroc",human SMN2-gene,2.98****
same,"full-length SMN2 transcripts, mean expression level, Quad",human SMN2-gene,2.52****
same,"full-length SMN2 transcripts, mean expression level, TA",human SMN2-gene,3.45****
same,"full-length SMN2 transcripts, mean expression level, Cervical",human SMN2-gene,1.78**
same,"full-length SMN2 transcripts, mean expression level, Lumbar",human SMN2-gene,1.48**
same,"full-length SMN2 transcripts, mean expression level, Thoracic",human SMN2-gene,1.49*
Ac-RXRRBRRYQFLIRBRXR-B [Peptide 4],"full-length SMN2 transcripts, mean expression level, Brainstem",human SMN2-gene,0.98
same,"full-length SMN2 transcripts, mean expression level, Cerebellum",human SMN2-gene,0.96
same,"full-length SMN2 transcripts, mean expression level, Cortex",human SMN2-gene,1.1
same,"full-length SMN2 transcripts, mean expression level, Liver",human SMN2-gene,3.26
same,"full-length SMN2 transcripts, mean expression level, Gastroc",human SMN2-gene,3.64****
same,"full-length SMN2 transcripts, mean expression level, Quad",human SMN2-gene,2.70****
same,"full-length SMN2 transcripts, mean expression level, TA",human SMN2-gene,4.23****
same,"full-length SMN2 transcripts, mean expression level, Cervical",human SMN2-gene,1.14*
same,"full-length SMN2 transcripts, mean expression level, Lumbar",human SMN2-gene,1
same,"full-length SMN2 transcripts, mean expression level, Thoracic",human SMN2-gene,1.12
Ac-RXRRBRRXRS*RXRBRXR-G [Peptide 44],cell activity (SMN2 exon 7 inclusion) relative to peptide 14,[1],no significant effect on cell activity
Ac-RXRRBRRXR S*FLRXRBRXR-BB [Peptide 14],cell penetration in several compartments of the central nervous system and the skeletal muscle compared with currently available peptides 1-7,human SMN2-gene; Table 3 data,increased
same,"full-length SMN2 transcripts, mean expression level, Brainstem",human SMN2-gene,1.97***
same,"full-length SMN2 transcripts, mean expression level, Cerebellum",human SMN2-gene,1.26
same,"full-length SMN2 transcripts, mean expression level, Cortex",human SMN2-gene,1.50*
same,"full-length SMN2 transcripts, mean expression level, Liver",human SMN2-gene,3.45
same,"full-length SMN2 transcripts, mean expression level, Gastroc",human SMN2-gene,2.82****
same,"full-length SMN2 transcripts, mean expression level, Quad",human SMN2-gene,2.45***
same,"full-length SMN2 transcripts, mean expression level, TA",human SMN2-gene,3.24****
same,"full-length SMN2 transcripts, mean expression level, Cervical",human SMN2-gene,1.23**
same,"full-length SMN2 transcripts, mean expression level, Lumbar",human SMN2-gene,2.23
same,"full-length SMN2 transcripts, mean expression level, Thoracic",human SMN2-gene,2.38**
same,increase in cell penetration / exon inclusion compared with the currently available peptide conjugated to the same antisense oligonucleotide,"human SMN2-gene; in vivo, Table 3 data, peptide 17 versus peptide 6, peptide 14 versus peptide 2",up to 59.7%
